Measured values published in ChEMBL document CHEMBL1201862, “PubChem BioAssay data set” (2004).
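Protocol summary: plate cells (96-well), add compound at 5 concentrations, incubate 48 h, interpolate endpoints linearly. At the GI50, growth is halved.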 Activity calls are given as the source filed them. Rule as the data show it: active = GI50 up to about 1.1 µM and inactive = higher.

Experiments:
Test in all cases: NCI-60 cell line screen, 48 h
XF498 = tested on: XF498
DMS-273 = tested on: DMS-273
KM-20L2 = tested on: KM-20L2
HOP-18 = tested on: HOP-18
RXF 631 = tested on: RXF 631
LXFL 529 = tested on: LXFL 529
DMS-114 = tested on: DMS-114
SNB-78 = tested on: SNB-78

Measured: GI50

COc1ccc2c3c(n(Cc4ccccc4)c(=O)c2c1)-c1cc(OC)c(OC)cc1C3C (stereo unspecified)
inactive: XF498 7.96 µM | DMS-273 7.6 µM | KM-20L2 25.6 µM | HOP-18 28.3 µM | RXF 631 15.1 µM | LXFL 529 10.4 µM | DMS-114 23 µM | SNB-78 57.7 µM

COC(=O)c1ccccc1NC(=O)C(=O)NNC(=O)c1ccncc1
inactive: XF498 > 100 µM | DMS-273 > 100 µM | KM-20L2 > 100 µM | HOP-18 > 100 µM | RXF 631 > 100 µM | LXFL 529 > 100 µM | DMS-114 > 100 µM

CC(C)(C)c1cc(CCC(=O)Nc2ccc(Cl)cc2)nc(S)n1
inactive: XF498 > 100 µM | DMS-273 > 100 µM | KM-20L2 > 100 µM | HOP-18 > 100 µM | RXF 631 > 100 µM | LXFL 529 > 100 µM | DMS-114 > 100 µM

CN(c1ccccc1)c1cc2ccccc2nn1
inactive: XF498 67 µM | DMS-273 > 100 µM | KM-20L2 > 100 µM | HOP-18 > 100 µM | RXF 631 34.1 µM | LXFL 529 56.1 µM | DMS-114 52.2 µM | SNB-78 > 100 µM

CCOC(=O)NC(=O)c1cn(CC(=O)NCC(=O)NCC(=O)N2CCN(CCn3c(C)nc(C(N)=O)c3N)CC2)c(=O)[nH]c1=O
inactive: XF498 > 100 µM | KM-20L2 > 100 µM | HOP-18 > 100 µM | RXF 631 > 100 µM | LXFL 529 > 100 µM | DMS-114 > 100 µM | SNB-78 > 100 µM

O=C1C=Cc2ncccc2C1=O
inactive: XF498 24.6 µM | DMS-273 17 µM | KM-20L2 > 45.9 µM | HOP-18 > 52 µM | RXF 631 21.4 µM | LXFL 529 16.5 µM | DMS-114 16.5 µM | SNB-78 31 µM

CCc1ccccc1NC(=O)C(=O)CC(=O)c1sc(Nc2ccccc2)nc1C
inactive: XF498 > 100 µM | DMS-273 > 100 µM | KM-20L2 > 100 µM | HOP-18 > 100 µM | RXF 631 > 100 µM | LXFL 529 > 100 µM | DMS-114 > 100 µM | SNB-78 > 100 µM

O=c1[nH]nc2ccccc2c1Cl
inactive: XF498 14.5 µM | DMS-273 16.3 µM | KM-20L2 14.6 µM | HOP-18 15.7 µM | RXF 631 12.9 µM | DMS-114 4.89 µM | SNB-78 13.3 µM

Cc1ccccc1NC(=O)CC(=O)n1nc(-c2ccccc2)c(/N=N/c2ccc([N+](=O)[O-])cc2)c1-c1ccccc1
inactive: XF498 21.8 µM | DMS-273 21 µM | KM-20L2 16.7 µM | HOP-18 16.5 µM | RXF 631 12.4 µM | LXFL 529 24.9 µM | DMS-114 10.6 µM | SNB-78 26.9 µM

Clc1ccccc1C1=NN(c2ccccc2)C2c3ccccc3OCC12 (stereo unspecified)
inactive: XF498 > 100 µM | DMS-273 83.8 µM | KM-20L2 73.3 µM | HOP-18 27.8 µM | RXF 631 > 100 µM | LXFL 529 66.7 µM | DMS-114 > 100 µM | SNB-78 > 100 µM
